Measurements published in publication PMC7939473, “Unique active-site and subsite features in the arabinogalactan-degrading GH43 exo-β-1,3-galactanase from Phanerochaete chrysosporium” (The Journal of Biological Chemistry, 2021).

Biological target: T1, Pc1,3Gal43A (Phanerodontia chrysosporium, UniProt Q50KB2, E208A)
T1 construct: signal peptide removed; Gln21-Tyr448 (428 residues) plus two extra N-terminal residues Glu19-Phe20 from restriction site; GH43_sub24 catalytic domain (21-325) + CBM35 (326-448); expressed in Pichia pastoris, N-glycosylated at Asn79, Asn194, Asn389; monomer in solution
T1 sequence (Q50KB2 entry or part of it E208A): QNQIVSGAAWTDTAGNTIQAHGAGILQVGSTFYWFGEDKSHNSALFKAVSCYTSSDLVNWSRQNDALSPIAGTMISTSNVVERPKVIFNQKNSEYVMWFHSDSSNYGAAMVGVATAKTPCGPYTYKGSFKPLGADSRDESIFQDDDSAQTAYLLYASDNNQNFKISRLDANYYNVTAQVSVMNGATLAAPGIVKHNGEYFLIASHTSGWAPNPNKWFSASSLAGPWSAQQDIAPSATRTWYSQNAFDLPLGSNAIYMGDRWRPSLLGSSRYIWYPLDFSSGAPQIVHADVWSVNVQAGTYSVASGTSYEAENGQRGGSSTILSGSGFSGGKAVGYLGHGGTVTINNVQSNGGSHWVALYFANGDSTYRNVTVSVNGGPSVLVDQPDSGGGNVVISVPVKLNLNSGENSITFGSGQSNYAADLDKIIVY
Experiment: X-ray crystallography (co-crystal, […] Å)
Conditions: ligand-binding site of the CBM35 domain (not in catalytic site); 10 mM Gal3; pH 4.5

OC[C@H]1O[C@@H](O[C@H]2[C@@H](O)[C@@H](CO)O[C@@H](O[C@H]3[C@@H](O)[C@@H](CO)OC(O)[C@@H]3O)[C@@H]2O)[C@H](O)[C@@H](O)[C@H]1O (stereo partly drawn) [Gal3, β-1,3-galactotriose]
X-ray crystallography (co-crystal, 2.3 Å): In E208A_Gal3, electron density of Gal3 was observed in the ligand-binding site of PcCBM35
